43 compounds from US10172858B2, “Combination pharmaceutical compositions and uses thereof” (Intellikine LLC, priority 2011, dated 2019) can be followed below.

In general, EC50 refers to the midpoint of the concentration-response curve. As usually defined, the IC50 is the concentration that inhibits the measured activity by half. Higher therefore signals lower potency.

One assay relates to PC3. Put plainly: PC3 tumor cell line proliferation assay. The format is cell-based. The conditions noted are these: Homo sapiens, PC-3; for EC50: Table 1; for IC50: Table 2, in vitro IC50.
A further assay deals with mTORC (Homo sapiens (Human), UniProt P42345). Briefly: mTORC in vitro IC50 (Table 2). The format is biochemical.
The next assay deals with PI3K δ (Homo sapiens (Human), UniProt O00329). Briefly: PI3K δ kinase assay. In kind it is biochemical.
The next assay has as its target PI3K γ (Homo sapiens (Human), UniProt P48736). Put plainly: PI3K γ kinase assay. The format is biochemical.
The next assay concerns the target PI3K α (Homo sapiens (Human), UniProt P42336). Briefly: PI3K α kinase assay. The format is biochemical.
A further assay has as its target PI3K β (Homo sapiens (Human), UniProt P42338). Briefly: PI3K β kinase assay. In kind it is biochemical. The conditions noted are these: Table 2.

Molecules are shown by their SMILES. Where two headings read alike, the source gives them in different places. A value given as a limit tells only on which side of the number the result lay.

PI3K β, sequence (P42338 whole entry, species assumed): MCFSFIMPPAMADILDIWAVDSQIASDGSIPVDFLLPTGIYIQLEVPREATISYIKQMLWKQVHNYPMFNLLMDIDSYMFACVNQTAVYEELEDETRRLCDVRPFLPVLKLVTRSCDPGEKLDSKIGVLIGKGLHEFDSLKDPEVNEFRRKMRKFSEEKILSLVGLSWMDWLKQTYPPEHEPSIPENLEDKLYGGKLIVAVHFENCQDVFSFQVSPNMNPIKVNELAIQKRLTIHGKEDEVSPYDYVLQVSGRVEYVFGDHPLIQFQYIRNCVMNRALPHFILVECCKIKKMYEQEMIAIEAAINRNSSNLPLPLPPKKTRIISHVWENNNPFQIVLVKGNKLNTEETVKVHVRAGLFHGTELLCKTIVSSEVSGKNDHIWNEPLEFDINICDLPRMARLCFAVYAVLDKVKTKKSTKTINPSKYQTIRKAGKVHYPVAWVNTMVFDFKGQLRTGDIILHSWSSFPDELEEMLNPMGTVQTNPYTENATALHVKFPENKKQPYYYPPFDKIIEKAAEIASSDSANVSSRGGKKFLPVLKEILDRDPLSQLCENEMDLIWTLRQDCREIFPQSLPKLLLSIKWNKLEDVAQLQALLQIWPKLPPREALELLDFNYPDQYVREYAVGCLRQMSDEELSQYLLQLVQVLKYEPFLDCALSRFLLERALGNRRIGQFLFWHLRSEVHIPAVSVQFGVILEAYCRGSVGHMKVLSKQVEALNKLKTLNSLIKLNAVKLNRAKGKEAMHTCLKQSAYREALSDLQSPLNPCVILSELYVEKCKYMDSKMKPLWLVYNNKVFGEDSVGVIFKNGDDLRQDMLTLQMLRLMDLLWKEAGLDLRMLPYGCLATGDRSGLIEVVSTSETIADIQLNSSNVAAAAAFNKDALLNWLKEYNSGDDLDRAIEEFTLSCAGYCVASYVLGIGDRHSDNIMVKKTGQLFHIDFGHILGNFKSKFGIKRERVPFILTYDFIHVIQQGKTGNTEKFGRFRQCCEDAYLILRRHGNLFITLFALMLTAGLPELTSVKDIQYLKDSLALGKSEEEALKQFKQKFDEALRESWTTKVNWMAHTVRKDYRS
PI3K β, sequence (P27986 whole entry partner, species assumed): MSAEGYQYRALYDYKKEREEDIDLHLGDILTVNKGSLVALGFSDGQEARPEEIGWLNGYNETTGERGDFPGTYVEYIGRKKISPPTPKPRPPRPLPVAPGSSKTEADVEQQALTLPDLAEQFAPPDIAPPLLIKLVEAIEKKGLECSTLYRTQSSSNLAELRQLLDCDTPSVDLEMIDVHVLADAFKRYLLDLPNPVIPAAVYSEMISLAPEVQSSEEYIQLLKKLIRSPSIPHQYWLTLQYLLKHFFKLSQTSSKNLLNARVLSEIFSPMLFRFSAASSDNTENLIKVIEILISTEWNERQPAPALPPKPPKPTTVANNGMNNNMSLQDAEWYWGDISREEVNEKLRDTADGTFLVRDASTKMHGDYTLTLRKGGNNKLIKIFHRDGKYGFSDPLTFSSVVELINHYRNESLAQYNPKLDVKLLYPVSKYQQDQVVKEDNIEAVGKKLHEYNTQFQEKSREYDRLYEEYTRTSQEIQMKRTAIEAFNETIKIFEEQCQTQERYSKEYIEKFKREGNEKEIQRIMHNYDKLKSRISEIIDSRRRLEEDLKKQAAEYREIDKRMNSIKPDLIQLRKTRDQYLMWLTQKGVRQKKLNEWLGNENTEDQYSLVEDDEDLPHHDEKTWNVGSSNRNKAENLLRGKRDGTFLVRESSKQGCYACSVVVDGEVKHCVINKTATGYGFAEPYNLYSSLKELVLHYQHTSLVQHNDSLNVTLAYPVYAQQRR
PI3K δ, sequence (O00329 whole entry, species assumed): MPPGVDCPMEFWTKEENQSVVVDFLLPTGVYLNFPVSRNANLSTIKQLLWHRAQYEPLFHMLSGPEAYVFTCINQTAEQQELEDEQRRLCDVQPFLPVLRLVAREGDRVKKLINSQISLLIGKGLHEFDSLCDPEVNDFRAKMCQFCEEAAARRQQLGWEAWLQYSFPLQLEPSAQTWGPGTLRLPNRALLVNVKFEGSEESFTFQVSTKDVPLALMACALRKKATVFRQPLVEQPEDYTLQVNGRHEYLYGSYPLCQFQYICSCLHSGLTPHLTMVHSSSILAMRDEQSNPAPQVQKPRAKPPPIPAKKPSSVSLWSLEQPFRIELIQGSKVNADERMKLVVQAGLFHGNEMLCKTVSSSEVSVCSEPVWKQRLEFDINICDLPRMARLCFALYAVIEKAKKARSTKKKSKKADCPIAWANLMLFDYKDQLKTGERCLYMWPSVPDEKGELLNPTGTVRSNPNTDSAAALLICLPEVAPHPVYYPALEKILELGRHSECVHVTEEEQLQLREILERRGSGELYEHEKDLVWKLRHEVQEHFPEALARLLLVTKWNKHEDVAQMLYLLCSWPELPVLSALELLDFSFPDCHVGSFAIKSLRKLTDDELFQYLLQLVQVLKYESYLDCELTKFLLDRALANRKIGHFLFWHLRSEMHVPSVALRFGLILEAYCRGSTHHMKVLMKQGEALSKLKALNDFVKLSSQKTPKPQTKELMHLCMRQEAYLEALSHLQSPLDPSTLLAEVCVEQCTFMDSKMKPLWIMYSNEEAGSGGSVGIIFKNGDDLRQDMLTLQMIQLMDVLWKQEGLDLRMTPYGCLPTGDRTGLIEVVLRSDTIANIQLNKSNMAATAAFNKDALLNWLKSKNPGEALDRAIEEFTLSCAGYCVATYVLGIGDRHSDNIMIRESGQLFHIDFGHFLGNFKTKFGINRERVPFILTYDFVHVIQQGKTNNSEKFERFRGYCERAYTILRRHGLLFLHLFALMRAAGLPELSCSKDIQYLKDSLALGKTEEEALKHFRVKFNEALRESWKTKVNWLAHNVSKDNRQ
PI3K δ, sequence (P27986 whole entry partner, species assumed): as the sequence (P27986 whole entry partner, species assumed) above
mTORC, sequence (P42345 1360-2549): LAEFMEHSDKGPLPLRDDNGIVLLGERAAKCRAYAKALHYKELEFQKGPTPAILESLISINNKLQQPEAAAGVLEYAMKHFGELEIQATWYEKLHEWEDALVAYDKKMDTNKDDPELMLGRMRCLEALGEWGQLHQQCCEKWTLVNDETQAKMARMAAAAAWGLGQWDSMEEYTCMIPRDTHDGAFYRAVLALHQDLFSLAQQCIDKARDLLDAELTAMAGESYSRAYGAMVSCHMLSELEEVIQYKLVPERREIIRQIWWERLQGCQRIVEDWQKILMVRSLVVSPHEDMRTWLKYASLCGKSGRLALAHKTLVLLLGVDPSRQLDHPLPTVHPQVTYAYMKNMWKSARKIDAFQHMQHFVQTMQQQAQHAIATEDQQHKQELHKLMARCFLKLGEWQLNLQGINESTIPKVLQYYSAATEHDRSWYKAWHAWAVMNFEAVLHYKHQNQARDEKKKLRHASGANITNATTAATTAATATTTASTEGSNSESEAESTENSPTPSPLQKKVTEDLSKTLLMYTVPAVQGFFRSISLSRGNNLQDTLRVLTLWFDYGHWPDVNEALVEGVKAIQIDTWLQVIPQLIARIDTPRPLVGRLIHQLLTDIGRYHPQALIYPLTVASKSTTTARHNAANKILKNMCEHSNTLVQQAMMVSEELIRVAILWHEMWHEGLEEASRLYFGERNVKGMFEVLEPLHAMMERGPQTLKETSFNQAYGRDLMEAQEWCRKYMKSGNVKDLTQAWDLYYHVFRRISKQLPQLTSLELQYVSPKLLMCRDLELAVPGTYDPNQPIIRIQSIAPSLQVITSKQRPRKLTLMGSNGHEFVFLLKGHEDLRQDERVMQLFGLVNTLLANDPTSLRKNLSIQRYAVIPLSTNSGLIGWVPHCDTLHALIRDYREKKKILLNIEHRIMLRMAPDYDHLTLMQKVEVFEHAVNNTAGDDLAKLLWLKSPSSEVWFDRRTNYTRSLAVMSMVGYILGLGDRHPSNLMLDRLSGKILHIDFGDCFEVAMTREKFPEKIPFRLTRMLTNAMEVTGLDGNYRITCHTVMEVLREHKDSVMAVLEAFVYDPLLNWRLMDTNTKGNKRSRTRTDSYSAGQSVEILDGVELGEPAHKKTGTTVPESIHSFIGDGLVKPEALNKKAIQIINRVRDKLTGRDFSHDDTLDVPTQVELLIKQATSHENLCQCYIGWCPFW
Method for PC3: The assay is performed in a 96 well microtiter plate using Alamar Blue reduction. […] A compound disclosed herein is diluted in Tumor Cell Media and added in a 10 ul volume. […] A volume of 10 uL of Alamar Blue reagent is added to each well and plates are incubated for 3 hours at 37 C and 5% CO2. Alamar Blue fluoresce is read at 560Ex/590Em, and IC50 values are calculated using GraphPad Prism 5.
Method for mTORC: The compounds described herein and any other mTor inhibitors known in the art can be tested against recombinant mTOR (Invitrogen) in an assay containing 50 mM HEPES, pH 7.5, 1 mM EGTA, 10 mM MgCl2, 2.5 mM, 0.01% Tween, 10 μM ATP (2.5 μCi of μ-32P-ATP), and 3 μg/mL BSA. Rat recombinant PHAS-1/4EBP1 (Calbiochem; 2 mg/mL) is used as a substrate. Reactions are terminated by spotting onto nitrocellulose, which is washed with 1M NaCl/1% phosphoric acid (approximately 6 times, 5-10 minutes each). Sheets are dried and the transferred radioactivity quantitated by phosphorimaging.
For instance, one can use Invitrogen's LanthaScreen™ Kinase assay to test the inhibitors of mTOR disclosed herein. This assay is a time resolved FRET platform that measures the phosphorylation of GFP labeled 4EBP1 by mTOR kinase. The kinase reaction is performed in a white 384 well microtitre plate. The total reaction volume is 20 ul per well and the reaction buffer composition is 50 mM HEPES pH7.5, 0.01% Polysorbate 20, 1 mM EGTA, 10 mM MnCl2, and 2 mM DTT. In the first step, each well receives 2 ul of test compound in 20% dimethylsulphoxide resulting in a 2% DMSO final concentration. Next, 8 ul of mTOR diluted in reaction buffer is added per well for a 60 ng/ml final concentration. To start the reaction, 10 ul of an ATP/GFP-4EBP1 mixture (diluted in reaction buffer) is added per well for a final concentration of 10 μM ATP and 0.5 μM GFP-4EBP1. The plate is sealed and incubated for 1 hour at room temperature. […] The plate is sealed, incubated for 1 hour at room temperature, and then read on a plate reader set up for LanthaScreen™ TR-FRET. Data is analyzed and IC50s are generated using GraphPad Prism 5.

`CC(=O)Nc1nc2cc(-c3nn(C(C)C)c4ncnc(N)c34)ccc2o1` [Compound 2] showed an EC50 in the assay with PC3 of less than 1000 nM.
On to `CC(C)n1nc(-c2ccc3nc(N)oc3c2)c2c(N)ncnc21` [Compound 4], for which, in the assay with PC3, the EC50 is less than 10000 nM.
`COc1ccc2[nH]c(-c3nn(C(C)C)c4ncnc(N)c34)cc2c1` [Compound 5] displayed an IC50 in the assay on PC3 of more than 500 nM.
For `Nc1nc2cc(-c3nn(C4CCOCC4)c4ncnc(N)c34)ccc2o1` [Compound 5], the EC50 in the assay on PC3 is less than 100 nM.
`CC(C)n1nc(-c2cc3ccccc3n2C)c2c(N)ncnc21` [Compound 6] yielded an IC50 in the assay on PC3 of more than 500 nM.
In the assay on PC3, `Nc1nc2cc(-c3nn(C4CCC(N5CCOCC5)CC4)c4ncnc(N)c34)ccc2o1` (stereo not shown) [Compound 6] yielded a concentration giving a half-maximal response (EC50) of less than 1000 nM.
The same measure, in the same setting: as for `CC(=O)N1CCC(n2nc(-c3ccc4oc(N)nc4c3)c3c(N)ncnc32)CC1` [Compound 7], the figure is less than 10000 nM.
Consider `CC(C)n1nc(-c2cc3ccccc3[nH]2)c2c(N)ncnc21` [Compound 7], for which the IC50 in the assay with PC3 was more than 500 nM.
Regarding `CC(C)n1cc(-c2ccc3oc(N)nc3c2)c2c(N)ncnc21` [Compound 8], in the assay on PC3, the EC50 was less than 100 nM.
Regarding `COc1ccc2cc(-c3nn(C(C)C)c4ncnc(N)c34)[nH]c2c1` [Compound 8], the IC50 in the assay with PC3 is more than 500 nM.
In the assay on PC3, `CC(C)n1nc(-c2cc3c(Cl)cccc3[nH]2)c2c(N)ncnc21` [Compound 9] returned an IC50 of more than 500 nM.
Consider `Nc1nc2cc(-c3cn(C4CCOCC4)c4ncnc(N)c34)ccc2o1` [Compound 9], for which, in the assay with PC3, the EC50 was less than 100 nM.
In the assay on PC3, `CC(C)n1nc(-c2ccc3onc(N)c3c2)c2c(N)ncnc21` [Compound 10] gave an EC50 of more than 10000 nM.
On to `CC(=O)Nc1noc2cc(-c3nn(C(C)C)c4ncnc(N)c34)ccc12` [Compound 11], for which the EC50 with PC3 is more than 10000 nM.
For the compound `CC(C)n1nc(-c2cc3cccc(O)c3[nH]2)c2c(N)ncnc21` [Compound 11], the IC50 in the assay with PC3 was less than 50 nM.
In the case of `CC(C)n1nc(-c2ccc3c(N)noc3c2)c2c(N)ncnc21` [Compound 12], in the assay on PC3, the EC50 is more than 10000 nM.
`Nc1ncnc2c1c(-c1cc3cc(O)ccc3[nH]1)nn2C1CCCC1` [Compound 12] yielded an IC50 in the assay with PC3 of less than 50 nM.
The compound `COc1cc(Cl)c2[nH]c(-c3nn(C(C)C)c4ncnc(N)c34)cc2c1` [Compound 13] returned an IC50 in the assay with PC3 of more than 500 nM.
With `CC(C)n1nc(-c2cc3cc(O)cc(Cl)c3[nH]2)c2c(N)ncnc21` [Compound 15], the IC50 in the assay with PC3 was less than 50 nM.
`CC(C)n1nc(-c2cc3cc(O)cc(F)c3[nH]2)c2c(N)ncnc21` [Compound 16] displayed an IC50 in the assay with PC3 of less than 500 nM.
On to `CC(C)n1nc(-c2cc3cc(Cl)ccc3[nH]2)c2c(N)ncnc21` [Compound 17], for which the IC50 in the assay on PC3 was more than 500 nM.
Take `CC(C)n1nc(-c2cc3ccc(O)cc3[nH]2)c2c(N)ncnc21` [Compound 21]: the IC50 with PC3 was more than 500 nM.
`CC(C)n1nc(-c2cc3ccc(C#N)cc3[nH]2)c2c(N)ncnc21` [Compound 24] gave an IC50 in the assay with PC3 of more than 500 nM.
On to `CC(C)n1nc(-c2cc3ccc(C(N)=O)cc3[nH]2)c2c(N)ncnc21` [Compound 25], for which the IC50 in the assay with PC3 is more than 500 nM.
Same read-out and setting: as for `Nc1ncnc2c1c(-c1cc3cc(O)ccc3[nH]1)nn2C1CCCCC1` [Compound 26], the figure is less than 500 nM; as for `Nc1ncnc2c1c(-c1cc3cc(O)ccc3[nH]1)nn2C1CCC1` [Compound 27], less than 500 nM.
`COc1cc2cc(-c3nn(C(C)C)c4ncnc(N)c34)[nH]c2cc1Cl` [Compound 29]: at mTORC, the IC50 is more than 500 nM.
For the compound `CC(C)n1nc(-c2cc3cc(O)c(Cl)cc3[nH]2)c2c(N)ncnc21` [Compound 32], the IC50 in the assay with PC3 was more than 500 nM; on PI3K δ (Table 2), more than 500 nM; on PI3K γ (Table 2) it was more than 500 nM; against PI3K α, more than 500 nM; at mTORC, less than 500 nM.
Take `Nc1ncnc2c1c(-c1cc3cc(O)ccc3[nH]1)nn2CCN1CCOCC1` [Compound 33]: the IC50 in the assay with PC3 was more than 500 nM; against PI3K δ (Table 2), more than 500 nM; at PI3K γ (Table 2) it was more than 500 nM; on PI3K α (Table 2) it was more than 500 nM; against mTORC it was less than 500 nM.
As for `Nc1ncnc2c1c(-c1cc3cc(O)ccc3[nH]1)nn2CC(=O)N1CCOCC1` [Compound 34], the concentration for half-maximal inhibition (IC50) against PI3K δ (Table 2), at PI3K γ (Table 2), against PI3K α (Table 2) and at mTORC was more than 500 nM in each case.
Consider `CNC(=O)Cn1nc(-c2cc3cc(O)ccc3[nH]2)c2c(N)ncnc21` [Compound 35], for which the IC50 against PI3K δ (Table 2), on PI3K γ (Table 2), at PI3K α (Table 2) and on mTORC was more than 500 nM in each case.
With `Nc1ncnc2c1c(-c1cc3cccc(O)c3[nH]1)nn2C1CCCC1` [Compound 36], the IC50 with PC3 is less than 100 nM; on PI3K δ (Table 2), less than 500 nM; at PI3K γ (Table 2), less than 100 nM; at PI3K α (Table 2), more than 500 nM; on mTORC, less than 10 nM.
For `CC(C)n1nc(-c2cc3c(O)cccc3[nH]2)c2c(N)ncnc21` [Compound 37], the IC50 at PI3K δ (Table 2) was less than 500 nM; on PI3K γ (Table 2), less than 500 nM; against PI3K α (Table 2) it was less than 500 nM; against mTORC, more than 500 nM.
Regarding `Nc1ncnc2c1c(-c1cc3cc(O)ccc3[nH]1)nn2Cc1cccnc1` [Compound 38], the IC50 in the assay with PC3 was more than 500 nM; against PI3K δ (Table 2), more than 500 nM; at PI3K γ, more than 500 nM; at PI3K α (Table 2), more than 500 nM; at mTORC, less than 500 nM.
In the case of `CC(C)n1nc(-c2cc3c(Cl)ccc(O)c3[nH]2)c2c(N)ncnc21` [Compound 39], the IC50 in the assay with PC3 was more than 500 nM; at PI3K δ (Table 2) it was more than 500 nM; against PI3K γ (Table 2), more than 500 nM; against PI3K α (Table 2) it was more than 500 nM; at mTORC, less than 10 nM.
`COCCn1nc(-c2cc3cc(O)ccc3[nH]2)c2c(N)ncnc21` [Compound 40]: the IC50 in the assay with PC3 was more than 500 nM; against PI3K δ it was more than 500 nM; against PI3K γ (Table 2) it was more than 500 nM; on PI3K α (Table 2), more than 500 nM; against mTORC, less than 100 nM.
At mTORC, `CC(C)n1nc(-c2cc3cc(O)ccc3[nH]2)c2c(N)nccc21` [Compound 45] registered a concentration for half-maximal inhibition (IC50) of more than 500 nM.
Turning to `Nc1ncnc2c1c(-c1cc3cc(O)ccc3[nH]1)nn2C1CC(=O)C1` [Compound 53], the IC50 was more than 500 nM against PI3K γ (Table 2), more than 500 nM at PI3K α (Table 2), more than 500 nM against PI3K β and less than 100 nM on mTORC.
As to `Nc1ncnc2c1c(-c1cc3cc(O)ccc3[nH]1)nn2C1CC(O)C1` (stereo not shown) [Compound 54], the IC50 was more than 500 nM at PI3K γ (Table 2), more than 500 nM against PI3K α (Table 2), more than 500 nM against PI3K β and less than 25 nM against mTORC.
In the case of `CC(C)N1CCC(n2nc(-c3cc4cc(O)ccc4[nH]3)c3c(N)ncnc32)CC1` [Compound 55], the IC50 is more than 500 nM at PI3K γ (Table 2), more than 500 nM on PI3K α (Table 2), more than 500 nM against PI3K β and less than 500 nM on mTORC.
Turning to `CC(C)N1CCC(n2nc(-c3cc4cc(O)cc(Cl)c4[nH]3)c3c(N)ncnc32)CC1` [Compound 56], the IC50 at PI3K γ (Table 2), on PI3K α (Table 2), against PI3K β and against mTORC was more than 500 nM throughout.
`Nc1ncnc2c1c(-c1cc3cc(O)ccc3[nH]1)nn2C1CCC(N2CCOCC2)CC1` (stereo not shown) [Compound 57]: the IC50 against PI3K γ (Table 2) is more than 500 nM; at PI3K α (Table 2), more than 500 nM; against PI3K β, more than 500 nM; against mTORC, less than 25 nM.
On to `CN1CCN(C2CCC(n3nc(-c4cc5cc(O)ccc5[nH]4)c4c(N)ncnc43)CC2)CC1` (stereo not shown) [Compound 58], for which the IC50 on PI3K γ (Table 2), against PI3K α, against PI3K β and against mTORC was more than 500 nM in each case.
